# Paper PMC5433425 (PeerJ, 2017)
# “And” between values parts separate entries of the source, which are not always exact repeats. Equal entries are not always repeated. Peptide text beside a SMILES is read from it. * marks the point of attachment. βNA = c1ccc2cc(N*)ccc2c1
# What was measured:
# [1] = test system: human monocyte-derived macrophages; assay: Cytotoxicity, AlamarBlue method; format: cell-based; details: for AlamarBlue fluorescence 530/25,590/35 (raw well reading): 72 h, listed as PAN
# Experimental: (§1) The blood was collected from healthy donors and the peripheral blood mononuclear cells were isolated by Ficoll-Paque Plus (GE Healthcare, Freiburg, Germany) density gradient centrifugation as previously described ([Machado et al., 2016]). […] Fresh medium was added at day 4 post isolation. The effect of the compounds on human monocyte-derived macrophages was evaluated using the AlamarBlue method (Molecular Probes, Life Technologies) ([O’Brien et al., 2000]), and by measuring the release of the lactate dehydrogenase (LDH) into the culture supernatants using the Pierce LDH Cytotoxicity Assay (ThermoFisher Scientific, Waltham, MA, USA) ([Chan, Moriwaki & Rosa, 2013]) according to the manufacturer’s instructions. Briefly, 5 × 10^4 cells were seeded in 96-well microplates treated with the compounds, and incubated at 37 °C with 5% CO2. After 72 h of treatment, the cell viability was assessed. For the AlamarBlue method, the dye was added to each well to a final concentration of 10% and incubated overnight at 37 °C and 5% CO2. The fluorescence was measured with a 540/35 excitation filter and a 590/20 emission filter in a Synergy HT multi-mode microplate reader. The release of LDH from damaged cells into culture supernatants, as an indicator of cytotoxicity, was measured in serum-free medium. Here the amount of enzyme activity correlates to the number of damaged cells. The specific lysis was calculated as follows: (treated cells—spontaneous LDH release)/ (maximum LDH release—spontaneous LDH release) ×100.
# [2] = Cytotoxicity, AlamarBlue method; format: cell-based, human; details: human, human monocyte-derived macrophages, three days of exposure, AlamarBlue
# Experimental: as §1
# [3] = test system: human monocyte-derived macrophages; assay: Cytotoxicity, LDH release; format: cell-based; details: raw well reading, listed as PAN
# Experimental: as §1
# [4] = concentration 10 (unit not given)
# [5] = concentration 20 (unit not given)
# [6] = concentration 40 (unit not given)
# [7] = concentration 80 (unit not given)
# [8] = concentration 160 (unit not given)
# [9] = concentration 320 (unit not given)
# [10] = concentration 640 (unit not given)
# [11] = concentration 1280 (unit not given)
# [12] = concentration 2560 (unit not given)
smiles,measurement,setting,value
N=C(N)NCCC[C@H](NC(=O)[C@@H](N)Cc1ccccc1)C(=O)Nc1ccc2ccccc2c1 [PAβN] (H-Phe-Arg-βNA),"AlamarBlue fluorescence 530/25,590/35 (raw well reading)",[1]; 10 uM,5144 and 4515 and 5435
same,"AlamarBlue fluorescence 530/25,590/35 (raw well reading)",[1]; 20 uM,4321 and 4369 and 4263
same,"AlamarBlue fluorescence 530/25,590/35 (raw well reading)",[1]; 40 uM,4438 and 4039 and 4264
same,"AlamarBlue fluorescence 530/25,590/35 (raw well reading)",[1]; 80 uM,3781 and 3772 and 3994
same,"AlamarBlue fluorescence 530/25,590/35 (raw well reading)",[1]; 160 uM,3584 and 4033 and 3977
same,"AlamarBlue fluorescence 530/25,590/35 (raw well reading)",[1]; 320 uM,3356 and 3644 and 3382
same,"AlamarBlue fluorescence 530/25,590/35 (raw well reading)",[1]; 640 uM,3650 and 3381 and 3133
same,"AlamarBlue fluorescence 530/25,590/35 (raw well reading)",[1]; 1280 uM,2305 and 2619 and 2474
same,CC10,"[1]; three days of exposure, AlamarBlue",447.71 µM
same,CC50 at 3 days,[2]; read-out: CC50,1270 µM
same,CC90 at 3 days,[2]; read-out: CC90,3600 µM
same,Pierce LDH absorbance 490,[3]; [4],0.218 and 0.187 and 0.203
same,Pierce LDH absorbance 630,[3]; [4],0.102 and 0.108 and 0.118
same,Pierce LDH absorbance 490,[3]; [5],0.185 and 0.182
same,Pierce LDH absorbance 630,[3]; [5],0.094 and 0.098 and 0.113
same,Pierce LDH absorbance 490,[3]; [6],0.213 and 0.202 and 0.198
same,Pierce LDH absorbance 630,[3]; [6],0.106 and 0.115 and 0.108
same,Pierce LDH absorbance 490,[3]; [7],0.221 and 0.196 and 0.201
same,Pierce LDH absorbance 630,[3]; [7],0.11 and 0.102 and 0.112
same,Pierce LDH absorbance 490,[3]; [8],0.25 and 0.23 and 0.207
same,Pierce LDH absorbance 630,[3]; [8],0.098 and 0.096 and 0.105
same,Pierce LDH absorbance 490,[3]; [9],0.226 and 0.222 and 0.196
same,Pierce LDH absorbance 630,[3]; [9],0.099 and 0.109 and 0.1
same,Pierce LDH absorbance 490,[3]; [10],0.201 and 0.208 and 0.215
same,Pierce LDH absorbance 630,[3]; [10],0.096 and 0.11 and 0.112
same,Pierce LDH absorbance 490,[3]; [11],0.434 and 0.517 and 0.508
same,Pierce LDH absorbance 630,[3]; [11],0.175 and 0.213 and 0.218
same,Pierce LDH absorbance 490,[3]; [12],0.612 and 0.538 and 0.513
same,Pierce LDH absorbance 630,[3]; [12],0.334 and 0.228 and 0.206
